For assay [1], the system named is Streptozotocin-induced diabetic pain model (diabetic rats). Kind of assay: Pain relieving effect in streptozotocin-induced diabetic pain model. In kind it is in vivo, rat. Particulars: 1 mg/kg orally; for Relief Rate: pain threshold by von Frey filaments after 1 hour, STZ diabetic rats; for inhibition rate (in words): STZ-induced diabetic pain model. On the procedure:
Streptozotocin (STZ)-administered rats are widely used as an insulin-dependent diabetes model. In this model, decreased pain thresholds in response to mechanical stimulation are observed as in diabetic neuropathy patients [British Journal of Pharmacology, 1997, Vol. 122, p. 1478-1482].
(1) Preparation of STZ-Induced Diabetes Model
A STZ solution was prepared as a 30 mg/mL solution by being dissolved in a 0.05 mol/L citric acid aqueous solution (pH 4 to 4.5). The STZ solution (30 mg/mL) was intraperitoneally administered in a 2 mL/kg volume to rats (60 mg/kg). Rats showing 250 mg/dL or higher blood glucose levels after 1 week from the STZ administration were obtained as diabetic rats.
(2) Measurement of Pain Relieving Effect
The evaluation of Pain was performed with von Frey filaments [product name: Touch Test Sensory Evaluator, Model Number Model 58011, Muromachi Kikai Co., Ltd.], and the results were calculated as pain thresholds. Specifically, the above diabetic rats were stimulated by the pressure applied to the underside of the feet with von Frey filaments of varying stimulus strengths, and the stimulus strength at which the […] withdrew their feet was determined. From the result, a 50% pain threshold (paw withdrawal threshold)(g) was calculated by using the Dixon's up and down method [Annual Review of Pharmacology and Toxicology, 1980, Vol. 20, p. 441-462].
Rats with a 50% pain threshold of less than 4 g were used for the evaluation of the test compounds. The test compounds were each suspended in a 0.5% methyl cellulose aqueous solution, and orally administered in a 5 mL/kg volume. After 1 hour, the pain threshold was measured using von Frey filaments. The pain relief rate of the test compound was calculated by using the following equation.

Assay [2] addresses α2δ protein (Rattus norvegicus, UniProt P54290). In words: α2δ protein binding experiment ([3H]-gabapentin binding inhibition). As to conditions: 0.1 μmol/L test compound; [3H]-gabapentin 20 nmol/L; rat cerebral cortex membrane fraction; read-out: inhibitory activity. As to the method:
Experiment was conducted according to the methods described in European Journal of Pharmacology, 1993, 244, p. 293-301, using the report of Woodruff G N et al. as a reference (Journal of Biological Chemistry, 1996, 271, p. 5768-5776).
(1) Preparation of Membrane Fraction from Rat Cerebral Cortex
A male SD rat was purchased at the age of 6 weeks, and kept for at least 7 days prior to experiment. The cerebral cortex was removed, and gently washed with Tris-sucrose buffer A (containing 0.32 mol/L sucrose, 5 mmol/L tris-acetate, 1 mmol/L ethylenediaminetetraacetic acid (EDTA), 1 mmol/L ethylene glycol tetraacetic acid (EGTA), and a protease inhibitor cocktail tablet, pH 7.4). The cerebral cortex was placed in Tris-sucrose buffer A, and homogenized in 15 strokes (250 rpm) using a teflon homogenizer to obtain a crude extract. The crude extract was centrifuged at 4° C. for 10 minutes at 2,000 rpm, and the supernatant was collected. After adding Tris-sucrose buffer A to the resulting precipitate, the same homogenization and centrifugation procedures as above were performed, and the resulting supernatant was mixed with the previously obtained supernatant to obtain a total collected supernatant. The total collected supernatant was centrifuged at 4° C. for 30 minutes at 20,000 rpm, and the supernatant (cytosolic fraction) was removed. Tris-acetate buffer A (containing 5 mmol/L tris-acetate, 1 mmol/L EDTA, 1 mmol/L EGTA, and a protease inhibitor cocktail tablet, pH 8.0) was added to the remaining precipitate (cell membrane fraction), and the mixture was stirred for 1 hour. The stirred extract was centrifuged at 4° C. for 30 minutes at 26,500 rpm, and Tris-sucrose buffer B (containing 1.2 mol/L sucrose, 5 mmol/L tris-acetate, pH 7.4) was added to the resulting precipitate. The mixture was dispensed in centrifuge tubes in 15-mL portions, and 9 mL of Tris-sucrose buffer C (containing 0.9 mol/L sucrose, 5 mmol/L tris-acetate, pH 7.4) was gently layered on the mixture in each centrifuge tube without disrupting the interface. The centrifuge tubes were centrifuged at 4° C. for 90 minutes at 43,000 rpm, and the membrane fraction at the interface of the Tris-sucrose buffer B and the Tris-sucrose buffer C was collected with a Pasteur pipette. After adding Tris-acetate buffer B (5 mmol/L tris-acetate, pH 7.4) to the collected membrane fraction, the mixture was centrifuged at 4° C. for 20 minutes at 26,500 rpm. The resulting precipitate was resuspended in Tris-acetate buffer B to obtain a cerebral cortex membrane fraction, and the cerebral cortex membrane fraction was stored at −80° C. until use in the binding experiment. For the binding experiment, the stored suspension was centrifuged at 4° C. for 30 minutes at 32,000 rpm, and Binding buffer [a 0.1 w/v % bovine serum albumin (BSA)-containing 10 mmol/L 4-(2-hydroxyethyl)-1-piperazineethanesulfonic acid (HEPES) solution adjusted to pH 7.4 with sodium hydroxide] for the binding experiment was added to the obtained precipitate, and resuspended with a syringe equipped with an injection needle to adjust to the desired concentration.
(2) [^3H]-Gabapentin Binding Inhibition Experiment
A test compound (20 μL) diluted to 5 times of the final concentration with Binding buffer, [^3H]-gabapentin diluted to 100 nmol/L with binding buffer [20 μL (final concentration 20 nmol/L)], and the rat cerebral cortex membrane fraction (60 μL; 12 μg membrane fraction) obtained in the (1) above were added to each well of a 96-well round-bottom plate. After being sufficiently mixed, these were allowed to react at room temperature for 1 hour. After the reaction, the reaction sample was suction filtered using a filter plate with 50 μL/well of 0.3 vol % polyethyleneimine added, and a cell harvester. The filter was then washed with ice-cooled Wash buffer (100 mmol/L NaCl, 0.1 w/v % BSA). […]

Bounds are passed on as bounds.

α2δ protein, sequence (P54290 25-944 limits assumed): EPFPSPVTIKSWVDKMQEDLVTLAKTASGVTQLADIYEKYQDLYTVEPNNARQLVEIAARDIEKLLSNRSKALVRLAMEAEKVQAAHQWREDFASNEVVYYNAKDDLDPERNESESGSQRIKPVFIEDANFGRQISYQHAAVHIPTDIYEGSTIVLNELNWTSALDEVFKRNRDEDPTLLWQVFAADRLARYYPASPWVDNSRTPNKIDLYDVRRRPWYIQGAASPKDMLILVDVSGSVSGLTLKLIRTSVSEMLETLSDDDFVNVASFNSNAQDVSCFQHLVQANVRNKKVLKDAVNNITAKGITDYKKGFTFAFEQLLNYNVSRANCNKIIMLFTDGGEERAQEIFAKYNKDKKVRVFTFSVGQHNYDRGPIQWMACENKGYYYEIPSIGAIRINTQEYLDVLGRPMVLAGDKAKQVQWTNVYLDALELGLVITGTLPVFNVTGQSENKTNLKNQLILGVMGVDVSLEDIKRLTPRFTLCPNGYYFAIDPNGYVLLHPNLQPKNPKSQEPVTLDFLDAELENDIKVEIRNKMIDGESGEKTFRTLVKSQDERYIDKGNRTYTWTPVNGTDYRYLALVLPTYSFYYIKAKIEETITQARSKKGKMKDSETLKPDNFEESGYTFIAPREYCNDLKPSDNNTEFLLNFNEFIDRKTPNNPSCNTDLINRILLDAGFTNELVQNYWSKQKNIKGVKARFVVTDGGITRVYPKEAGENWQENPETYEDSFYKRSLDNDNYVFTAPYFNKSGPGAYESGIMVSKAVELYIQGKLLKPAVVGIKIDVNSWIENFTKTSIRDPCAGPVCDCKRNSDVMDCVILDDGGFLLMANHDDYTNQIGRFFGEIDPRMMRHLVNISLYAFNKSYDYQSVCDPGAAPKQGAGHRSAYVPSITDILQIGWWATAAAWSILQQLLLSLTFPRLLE
α2δ protein, sequence (P54290 945-1091 limits assumed): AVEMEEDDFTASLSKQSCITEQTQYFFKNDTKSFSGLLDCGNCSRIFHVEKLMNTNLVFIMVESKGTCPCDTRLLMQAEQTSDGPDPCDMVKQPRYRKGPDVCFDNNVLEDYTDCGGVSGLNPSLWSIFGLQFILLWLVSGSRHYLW

Turning to `CNc1ncc2c(n1)N1CCC[C@H]1CN(c1cccc3c1C(=O)C(=O)N3C)C2=O` [Compound 1-146, (S)-9-Methylamino-5-(1-methylindoline-2,3-dion-4-yl)-1,2,3,3a,4,5-hexahydro-5,8,10,10b-tetraazabenzo[e]azulen-6-one, reference compound], the “Relief Rate” value in assay [1] was determined as 6%.
In the case of `CNc1ncc2c(n1)N1CCC[C@H]1CN(c1cccn3c(=O)c(C)c(C)nc13)C2=O` [Compound 8, (S)-6-(2,3-Dimethyl-4-oxo-4H-pyrido[1,2-a]pyrimidin-9-yl)-2-methylamino-6,7,7a,8,9,10-hexahydro-5H-pyrimido[5,4-f]pyrrolo[1,2-a][1,4]diazepin-5-one], in assay [1], the “Relief Rate” value turned out to be 85% and the “inhibition rate (in words)” value is listed as “good inhibition rate”.
For `CNc1ncc2c(n1)N1CCC[C@H]1CN(c1cccc3c(=O)n(C)cnc13)C2=O` [Compound 10, (S)-6-(3-Methyl-4-oxo-3,4-dihydroquinazolin-8-yl)-2-methylamino-6,7,7a,8,9,10-hexahydro-5H-pyrimido[5,4-f]pyrrolo[1,2-a][1,4]diazepin-5-one], in that order: 91% and “good inhibition rate”.
`CCNc1ncc2c(n1)N1CCC[C@H]1CN(c1cccc3c1CCC(=O)N3C)C2=O` [Compound 83, (S)-2-Ethylamino-6-(1-methyl-2-oxo-1,2,3,4-tetrahydroquinolin-5-yl)-6,7,7a,8,9,10-hexahydro-5H-pyrimido[5,4-f]pyrrolo[1,2-a][1,4]diazepin-5-one]: in assay [2], the inhibition at 0.1 µM was not below 50%.
The same measure, in the same setting: with `Cn1cnc2cccc(N3C[C@@H]4CCCN4c4nc(N)ncc4C3=O)c2c1=O` [Compound 85, (S)-2-Amino-6-(3-methyl-4-oxo-3,4-dihydroquinazolin-5-yl)-6,7,7a,8,9,10-hexahydro-5H-pyrimido[5,4-f]pyrrolo[1,2-a][1,4]diazepin-5-one] the figure was not below 50%; with `CCNc1ncc2c(n1)N1CCC[C@H]1CN(c1csc3c(=O)n(C)ccc13)C2=O` [Compound 90, (S)-3-(2-Ethylamino-5-oxo-7a,8,9,10-tetrahydro-5H-pyrimido[5,4-f]pyrrolo[1,2-a][1,4]diazepin-6(7H)-yl)-6-methylthieno[2,3-c]pyridin-7(6H)-one], not below 50%.
Still for that read-out and setting: the result for `CNc1ncc2c(n1)N1CCC[C@H]1CN(c1csc3c(=O)n(C)ccc13)C2=O` [Compound 91, (S)-6-Methyl-3-(2-methylamino-5-oxo-7a,8,9,10-tetrahydro-5H-pyrimido[5,4-f]pyrrolo[1,2-a][1,4]diazepin-6(7H)-yl)thieno[2,3-c]pyridin-7(6H)-one] reads not below 50%.
On the same count and under the same terms, the result for `CCNc1ncc2c(n1)N1CCC[C@H]1CN(c1cn(C)c3c(=O)n(C)ccc13)C2=O` [Compound 93, (S)-6-(1,6-Dimethyl-7-oxo-6,7-dihydro-1H-pyrrolo[2,3-c]pyridin-3-yl)-2-ethylamino-6,7,7a,8,9,10-hexahydro-5H-pyrimido[5,4-f]pyrrolo[1,2-a][1,4]diazepin-5-one] reads not below 50%; that for `CCNc1ncc2c(n1)N1C[C@H](F)C[C@H]1CN(c1cccc3c(=O)n(C)cnc13)C2=O` [Compound 115, (7aS,9R)-2-Ethylamino-9-fluoro-6-(3-methyl-4-oxo-3,4-dihydroquinazolin-8-yl)-6,7,7a,8,9,10-hexahydro-5H-pyrimido[5,4-f]pyrrolo[1,2-a][1,4]diazepin-5-one], not below 50%.
Regarding `CCNc1ncc2c(n1)N1C[C@@H](OC)C[C@H]1CN(c1cccc3c(=O)n(C)cnc13)C2=O` [Compound 117, (7aS,9S)-2-Ethylamino-9-methoxy-6-(3-methyl-4-oxo-3,4-dihydroquinazolin-8-yl)-6,7,7a,8,9,10-hexahydro-5H-pyrimido[5,4-f]pyrrolo[1,2-a][1,4]diazepin-5-one], in assay [2], the inhibition at 0.1 µM is not below 50%.
Same read-out and setting: with `CCNc1ncc2c(n1)N1C[C@H](O)C[C@H]1CN(c1cccc3c(=O)n(C)cnc13)C2=O` [Compound 118, (7aS,9R)-2-Ethylamino-9-hydroxy-6-(3-methyl-4-oxo-3,4-dihydroquinazolin-8-yl)-6,7,7a,8,9,10-hexahydro-5H-pyrimido[5,4-f]pyrrolo[1,2-a][1,4]diazepin-5-one] the figure was not below 50%.
